Measured values from ChEMBL document CHEMBL1201862, “PubChem BioAssay data set” (2004).
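Cultured in 96-well plates, cells were exposed to test compound for 48 hours across five concentrations. Abbreviation: GI50, concentration required for 50% inhibition of growth.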 Calls of active or inactive are those of the source. No stated cut-off is given here; in the data, active = GI50 up to about 1.1 µM and inactive = higher.

How the values were obtained:
Test in all cases: NCI tumour cell line growth inhibition, 48 h
RPMI-8226 = test system: RPMI-8226
BT-549 = test system: BT-549
OVCAR-3 = test system: OVCAR-3
PC-3 = test system: PC-3
RXF 393 = test system: RXF 393
SNB-19 = test system: SNB-19
MDA-MB-435 = test system: MDA-MB-435
HCC 2998 = test system: HCC 2998
HOP-92 = test system: HOP-92
NCI/ADR-RES = test system: NCI/ADR-RES
SF-539 = test system: SF-539
KM12 = test system: KM12
U-251 = test system: U-251
SN12C = test system: SN12C
CCRF-CEM = test system: CCRF-CEM
SK-MEL-28 = test system: SK-MEL-28
K562 = test system: K562
DU-145 = test system: DU-145
HOP-62 = test system: HOP-62
OVCAR-5 = test system: OVCAR-5
HCT-15 = test system: HCT-15
OVCAR-8 = test system: OVCAR-8
SK-MEL-5 = test system: SK-MEL-5
ACHN = test system: ACHN
EKVX = test system: EKVX
Malme-3M = test system: Malme-3M
SR = test system: SR
786-0 = test system: 786-0
HL-60 = test system: HL-60
SK-OV-3 = test system: SK-OV-3
COLO 205 = test system: COLO 205
M14 = test system: M14
NCI-H460 = test system: NCI-H460
HT-29 = test system: HT-29
HCT-116 = test system: HCT-116
LOX IMVI = test system: LOX IMVI
MCF7 = test system: MCF7
IGROV-1 = test system: IGROV-1
SK-MEL-2 = test system: SK-MEL-2
SF-295 = test system: SF-295
CAKI-1 = test system: CAKI-1
NCI-H522 = test system: NCI-H522
OVCAR-4 = test system: OVCAR-4
NCI-H226 = test system: NCI-H226
TK-10 = test system: TK-10
A498 = test system: A498
Hs-578T = test system: Hs-578T
MDA-N = test system: MDA-N
T47D = test system: T47D
UACC-62 = test system: UACC-62
MOLT-4 = test system: MOLT-4
NCI-H23 = test system: NCI-H23
SF-268 = test system: SF-268
UACC-257 = test system: UACC-257
SNB-75 = test system: SNB-75
A549 = test system: A549
SW-620 = test system: SW-620
MDA-MB-231 = test system: MDA-MB-231

For `N=c1c2c(=S)n(-c3ccccc3)c(=S)n(-c3ccccc3)c2nc(SCCCN2CCCCC2)n1-c1ccccc1`, the GI50 (RPMI-8226) was 439 nM (active), the GI50 (BT-549) was 1750 nM (inactive) and the GI50 (OVCAR-3) was 1650 nM (inactive). For the same compound, the GI50 (PC-3) was 1660 nM (inactive), the GI50 (RXF 393) was 1640 nM (inactive) and the GI50 (SNB-19) was 2910 nM (inactive). The GI50 (MDA-MB-435) was 1750 nM (inactive), the GI50 (HCC 2998) was 1490 nM (inactive) and the GI50 (HOP-92) was 1780 nM (inactive). For the same compound, the GI50 (NCI/ADR-RES) was 2910 nM (inactive), the GI50 (SF-539) was 2930 nM (inactive) and the GI50 (KM12) was 1820 nM (inactive). The GI50 (U-251) was 1740 nM (inactive), the GI50 (SN12C) was 1780 nM (inactive) and the GI50 (CCRF-CEM) was 413 nM (active). For the same compound, the GI50 (SK-MEL-28) was 2110 nM (inactive), the GI50 (K562) was 1480 nM (inactive) and the GI50 (DU-145) was 1660 nM (inactive). For the same compound, the GI50 (HOP-62) was 1760 nM (inactive), the GI50 (OVCAR-5) was 11500 nM (inactive) and the GI50 (HCT-15) was 1550 nM. The GI50 (OVCAR-8) was 1850 nM (inactive), the GI50 (SK-MEL-5) was 1860 nM (inactive) and the GI50 (ACHN) was 1700 nM (inactive). The GI50 (EKVX) was 1980 nM (inactive), the GI50 (Malme-3M) was 1730 nM (inactive) and the GI50 (SR) was 558 nM (active). The GI50 (786-0) was 1090 nM (active), the GI50 (HL-60) was 1810 nM (inactive) and the GI50 (SK-OV-3) was 2260 nM (inactive). The GI50 (COLO 205) was 1770 nM (inactive), the GI50 (M14) was 1690 nM (inactive) and the GI50 (NCI-H460) was 1930 nM (inactive). The GI50 (HT-29) was 2090 nM (inactive), the GI50 (HCT-116) was 1730 nM (inactive) and the GI50 (LOX IMVI) was 910 nM (active). For the same compound, the GI50 (MCF7) was 329 nM (active), the GI50 (IGROV-1) was 1500 nM (inactive) and the GI50 (SK-MEL-2) was 1940 nM (inactive). For the same compound, the GI50 (SF-295) was 4910 nM (inactive), the GI50 (CAKI-1) was 1770 nM (inactive) and the GI50 (NCI-H522) was 1530 nM (inactive). For the same compound, the GI50 (OVCAR-4) was 1810 nM (inactive), the GI50 (NCI-H226) was 2350 nM (inactive) and the GI50 (TK-10) was 1710 nM (inactive). For the same compound, the GI50 (A498) was 2520 nM (inactive), the GI50 (Hs-578T) was 2790 nM (inactive) and the GI50 (MDA-N) was 1770 nM (inactive). The GI50 (T47D) was 2140 nM (inactive), the GI50 (UACC-62) was 1640 nM (inactive) and the GI50 (MOLT-4) was 118 nM (active). The GI50 (NCI-H23) was 1980 nM (inactive), the GI50 (SF-268) was 1990 nM (inactive) and the GI50 (UACC-257) was 1750 nM (inactive). For the same compound, the GI50 (SNB-75) was 1730 nM (inactive), the GI50 (A549) was 1830 nM (inactive) and the GI50 (SW-620) was 2110 nM (inactive). The GI50 (MDA-MB-231) was 1640 nM (inactive).
